According to patent publication EP0302407A2, “Metallic complexes of streptogramin-B, their preparation and their use in animal food” (HOECHST AKTIENGESELLSCHAFT, priority 1987, dated 1989):
Marks after values point to notes of the source that are not given here.

What was measured:
Type in all cases: in vivo
männlichen Mastküken [1] = test: Feeding trial with broiler chicks, Beispiel I (6 weeks); conditions: for Mortalität: 60480 min
Description: Ein Fütterungsversuch mit Etamycin-Cu-Komplex gemäß Herstellungsbeispiel 2 wurde mit 120 männlichen Mastküken in 3 Gruppen zu je 40 Küken durchgeführt, die in beheizten Batterien (5 Küken bei 8 Wiederholungen) gehalten wurden. Folgende Präparate und Dosierungen wurden eingesetzt:
Das Grundfutter hatte eine handelsübliche Zusammensetzung mit 13,0 MJ/kg = 3100 kcal/kg und einem Rohproteingehalt von 22 %, bei einem normgerechten Aminosäuren-, Vitamin-, Mineralstoff- und Spurenelementgehalt.
(§1) Der Versuch lief über 6 Wochen. Futter und Trinkwasser wurden nach Belieben angeboten. Die Tiere wurden wöchentlich einzeln gewogen, die Lebendmasse(LM)-Zunahmen errechnet, die Futteraufnahme bestimmt und aus Futteraufnahme : LM-Zunahme der Futteraufwand errechnet. Die Mortalität wurde erfaßt und aus all diesen Parametern die Produktionszahl (PZ) errechnet. [formula]

[2] = system: männlichen Mastküken (Lohmann); test: Feeding trial with broiler chicks, Beispiel II (42 days)
Description: as §1
In einem Mastküken-Versuch über 42 Tage wurde mit 144 männlichen Mastküken (Lohmann) 3 x 48 Küken (8 Wiederholungen x 6 Tiere) der Einfluß von Etamycin-Cu-Komplex gemäß Beispiel I in Dosierungen von 5 und 10 ppm gegenüber Negativ-Kontrollen ohne Zusatz geprüft. Haltung und Fütterung waren die gleichen wie in Beispiel I.

männlichen Mastküken [3] = test: Feeding trial with broiler chicks, Beispiel IV (5 weeks); conditions: for Mortalität: 50400 min
Description: as §1
Mit 96 männlichen Mastküken wurde in 3 Gruppen zu je 32 Mastküken (4 Wiederholungen x 8 Tiere) über 5 Wochen der Einfluß des Etamycin-Mn-Komplexes gemäß Beispiel 10 in Dosierungen von 5 und 10 ppm im Vergleich zu einer Negativ-Kontrolle (ohne Zusatz) geprüft. Die Haltungs- und Fütterungsbedingungen sowie die Auswertung waren die gleichen wie in Beispiel I.

Mastküken = test: Feeding trial with broiler chicks, Beispiel III (6 weeks); conditions: 10 mg/kg Futter (ppm)
Description: as §1
In einem weiteren Mastküken-Versuch wurde der Einfluß von Etamycin-Zn-Komplex gemäß Beispiel 4 in einer Dosierung von 10 ppm im Vergleich zu einer Negativ-Kontrolle wie im Beispiel I geprüft. Zum Einsatz kamen 36 Mastküken (6 Wiederholungen x 6 Tiere), bei einer Versuchszeit von 6 Wochen. Haltungs- und Fütterungsbedingungen waren die gleichen wie im Beispiel I.

[4] = 5 mg/kg Futter (ppm), Futteraufnahme : LM-Zunahme
[5] = 5 mg/kg Futter (ppm), control = 100
[6] = 20 mg/kg Futter (ppm), control = 100
[7] = 10 mg/kg Futter (ppm), Futteraufnahme : LM-Zunahme
[8] = 10 mg/kg Futter (ppm), control = 100

Substance: Etamycin-Kupfer-(II)-komplex (Et₂ x Cu(II)) [Etamycin-Cu-Komplex]
- Futteraufnahme (männlichen Mastküken [1]; 5 mg/kg Futter (ppm)): 2561 g
- LM-Zunahme (männlichen Mastküken [1]; 5 mg/kg Futter (ppm)): 1439 * g
- Produktionszahl (männlichen Mastküken [1]; 5 mg/kg Futter (ppm)): 154
- Mortalität (männlichen Mastküken [1]; 5 mg/kg Futter (ppm)): 20%
- Futteraufwand (männlichen Mastküken [1]; [4]): 1,78
- Futteraufnahme (männlichen Mastküken [1]; [5]): 101,2 rel.%
- Futteraufwand (männlichen Mastküken [1]; [5]): 92,7 rel. %
- LM-Zunahme (männlichen Mastküken [1]; [5]): 109,0 rel.%
- Futteraufnahme (männlichen Mastküken [1]; 20 mg/kg Futter (ppm)): 2644 g
- LM-Zunahme (männlichen Mastküken [1]; 20 mg/kg Futter (ppm)): 1442 * g
- Produktionszahl (männlichen Mastküken [1]; 20 mg/kg Futter (ppm)): 173
- Mortalität (männlichen Mastküken [1]; 20 mg/kg Futter (ppm)): 7,5%
- Futteraufwand (männlichen Mastküken [1]; 20 mg/kg Futter (ppm), Futteraufnahme : LM-Zunahme): 1,83
- Futteraufnahme (männlichen Mastküken [1]; [6]): 104,5 rel.%
- Futteraufwand (männlichen Mastküken [1]; [6]): 95,3 rel. %
- LM-Zunahme (männlichen Mastküken [1]; [6]): 109.2 rel.%
- Futteraufnahme ([2]; 5 mg/kg Futter (ppm)): 3260 g
- LM-Zunahme ([2]; 5 mg/kg Futter (ppm)): 1699 * g
- Mortalität ([2]; 5 mg/kg Futter (ppm)): 2,1%
- Produktionszahl ([2]; 5 mg/kg Futter (ppm)): 207
- Futteraufwand [2, 4]: 1,92
- Futteraufnahme [2, 5]: 106,3 rel.%
- Futteraufwand [2, 5]: 97,5 rel. %
- LM-Zunahme [2, 5]: 109,0 rel.%
- Futteraufnahme ([2]; 10 mg/kg Futter (ppm)): 3099 g
- LM-Zunahme ([2]; 10 mg/kg Futter (ppm)): 1673 * g
- Mortalität ([2]; 10 mg/kg Futter (ppm)): 6,3%
- Produktionszahl ([2]; 10 mg/kg Futter (ppm)): 202
- Futteraufwand [2, 7]: 1,85
- Futteraufnahme [2, 8]: 101,0 rel.%
- Futteraufwand [2, 8]: 93,9 rel. %
- LM-Zunahme [2, 8]: 107,3 rel.%

Substance: Etamycin-Mangan (II)-komplex Et₂ x Mn(II) [Etamycin-Mn-Komplex]
- Futteraufnahme (männlichen Mastküken [3]; 5 mg/kg Futter (ppm)): 2334 g
- LM-Zunahme (männlichen Mastküken [3]; 5 mg/kg Futter (ppm)): 1394 * g
- Produktionszahl (männlichen Mastküken [3]; 5 mg/kg Futter (ppm)): 222
- Mortalität (männlichen Mastküken [3]; 5 mg/kg Futter (ppm)): 0%
- Futteraufwand (männlichen Mastküken [3]; [4]): 1,67
- Futteraufnahme (männlichen Mastküken [3]; [5]): 100 rel.%
- Futteraufwand (männlichen Mastküken [3]; [5]): 93,8 rel. %
- LM-Zunahme (männlichen Mastküken [3]; [5]): 106,4 rel.%
- Futteraufnahme (männlichen Mastküken [3]; 10 mg/kg Futter (ppm)): 2413 g
- LM-Zunahme (männlichen Mastküken [3]; 10 mg/kg Futter (ppm)): 1419 * g
- Produktionszahl (männlichen Mastküken [3]; 10 mg/kg Futter (ppm)): 222
- Mortalität (männlichen Mastküken [3]; 10 mg/kg Futter (ppm)): 0%
- Futteraufwand (männlichen Mastküken [3]; [7]): 1,70
- Futteraufnahme (männlichen Mastküken [3]; [8]): 103,4 rel.%
- Futteraufwand (männlichen Mastküken [3]; [8]): 95,5 rel. %
- LM-Zunahme (männlichen Mastküken [3]; [8]): 108,3 rel.%

Substance: Etamycin-Zn(II)-komplex (Et₂ x Zn(II)) [Etamycin-Zn-Komplex]
- Futteraufnahme (Mastküken): 3041 g
- LM-Zunahme (Mastküken): 1748 * g
- Produktionszahl (Mastküken): 228
- Mortalität (Mastküken; 60480 min): 5,6%
- Futteraufwand (Mastküken; Futteraufnahme : LM-Zunahme): 1,74
- Futteraufnahme (Mastküken; control = 100): 102,5 rel.%
- Futteraufwand (Mastküken; control = 100): 93,5 rel. %
- LM-Zunahme (Mastküken; control = 100): 109,4 rel.%
